Experimental data reported in patent publication US20100267561A1, “HERBICIDAL PYRIDAZINONE DERIVATIVES” (priority 2007, published 2010).

Columns and labels:
Experiment in all cases: Test B pre-/postemergence plant response
Format in all cases: in vivo
[1] = tested on: bermudagrass (Cynodon dactylon)
Procedure, shortened: (§1)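 Preemergence and postemergence (plants 2-18 cm, 1- to 4-leaf stage) applications used test chemicals in a non-phytotoxic solvent with surfactant. Plants were held in a greenhouse 13 to 15 days, then rated visually against controls on a 0-100 scale (0 no effect, 100 complete control).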

[2] = tested on: blackgrass (Alopecurus myosuroides)
Procedure, shortened: as §1

[3] = tested on: catchweed bedstraw (Galium aparine); conditions: Preemergence
Procedure, shortened: as §1

[4] = tested on: common (oilseed) sunflower (Helianthus annuus); conditions: Preemergence
Procedure, shortened: as §1

corn (Zea mays) = tested on: corn (Zea mays)
Procedure, shortened: as §1

[5] = tested on: downy bromegrass (Bromus tectorum)
Procedure, shortened: as §1

[6] = tested on: giant foxtail (Setaria faberii)
Procedure, shortened: as §1

[7] = tested on: green foxtail (Setaria viridis)
Procedure, shortened: as §1

[8] = tested on: lambsquarters (Chenopodium album)
Procedure, shortened: as §1

[9] = tested on: large crabgrass (Digitaria sanguinalis)
Procedure, shortened: as §1

[10] = tested on: morningglory (Ipomoea coccinea)
Procedure, shortened: as §1

[11] = tested on: velvetleaf (Abutilon theophrasti)
Procedure, shortened: as §1

[12] = tested on: wheat (Triticum aestivum)
Procedure, shortened: as §1

wild oat (Avena fatua) = tested on: wild oat (Avena fatua)
Procedure, shortened: as §1

[13] = 250 g ai/ha, preemergence, 0-100 scale
[14] = Postemergence, 31 g ai/ha, scale 0 to 100, 0 no effect, 100 complete control
[15] = Postemergence, 62 g ai/ha, scale 0 to 100
[16] = Postemergence, 125 g ai/ha, scale 0 to 100
[17] = Postemergence, 250 g ai/ha, scale 0 to 100
[18] = Preemergence, 31 g ai/ha, 0 to 100 scale, 0 no effect, 100 complete control
[19] = Preemergence, 62 g ai/ha, scale 0 to 100
[20] = Preemergence, 125 g ai/ha, scale 0 to 100
[21] = 31 g ai/ha, 0 to 100 scale, 0 no effect, 100 complete control
[22] = Preemergence, 250 g ai/ha, scale 0 to 100

Cc1cc(-c2ccc(Br)cc2)nn1-c1c(O)cnn(C)c1=O [Compound 4]
Bermudagrass plant response rating [1, 13]: 100
Plant response rating, Bermudagrass [1, 14]: 100
Plant response rating, Bermudagrass [1, 15]: 100
Plant response rating, Bermudagrass [1, 16]: 100
Plant response rating, Bermudagrass [1, 17]: 100
Plant response rating, Bermudagrass [1, 18]: 100
Plant response rating, Bermudagrass [1, 19]: 100
Plant response rating, Bermudagrass [1, 20]: 100
Blackgrass plant response rating [2, 13]: 100
Plant response rating, Blackgrass [2, 14]: 90
Plant response rating, Blackgrass [2, 15]: 100
Plant response rating, Blackgrass [2, 16]: 100
Plant response rating, Blackgrass [2, 17]: 100
Plant response rating, Blackgrass [2, 18]: 100
Plant response rating, Blackgrass [2, 19]: 100
Plant response rating, Blackgrass [2, 20]: 100
Plant response rating, Galium [3, 21]: 0
Plant response rating, Galium ([3]; 62 g ai/ha, scale 0 to 100): 0
Plant response rating, Galium ([3]; 125 g ai/ha, scale 0 to 100): 85
Plant response rating, Galium ([3]; 250 g ai/ha, scale 0 to 100): 90
Plant response rating, Sunflower [4, 21]: 0
Plant response rating, Sunflower ([4]; 62 g ai/ha, scale 0 to 100): 0
Plant response rating, Sunflower ([4]; 125 g ai/ha, scale 0 to 100): 0
Plant response rating, Sunflower ([4]; 250 g ai/ha, scale 0 to 100): 70
Plant response rating, Corn (corn (Zea mays); [14]): 90
Plant response rating, Corn (corn (Zea mays); [15]): 95
Plant response rating, Corn (corn (Zea mays); [16]): 100
Plant response rating, Corn (corn (Zea mays); [17]): 100
Plant response rating, Corn (corn (Zea mays); [18]): 85
Plant response rating, Corn (corn (Zea mays); [19]): 95
Plant response rating, Corn (corn (Zea mays); [20]): 98
Plant response rating, Corn (corn (Zea mays); [22]): 100
Plant response rating, Bromegrass, Downy [5, 14]: 0
Plant response rating, Bromegrass, Downy [5, 15]: 5
Plant response rating, Bromegrass, Downy [5, 16]: 20
Plant response rating, Bromegrass, Downy [5, 17]: 40
Plant response rating, Bromegrass, Downy [5, 18]: 70
Plant response rating, Bromegrass, Downy [5, 19]: 70
Plant response rating, Bromegrass, Downy [5, 20]: 98
Plant response rating, Bromegrass, Downy ([5]; Preemergence, 250 g ai/ha, scale 0 to 100 (0 no effect, 100 complete control)): 100
Plant response rating, Foxtail, Giant [6, 14]: 100
Plant response rating, Foxtail, Giant [6, 15]: 100
Plant response rating, Foxtail, Giant [6, 16]: 100
Plant response rating, Foxtail, Giant [6, 17]: 100
Plant response rating, Foxtail, Giant [6, 18]: 100
Plant response rating, Foxtail, Giant [6, 19]: 100
Plant response rating, Foxtail, Giant [6, 20]: 100
Plant response rating, Foxtail, Giant [6, 22]: 100
Plant response rating, Foxtail, Green [7, 14]: 95
Plant response rating, Foxtail, Green [7, 15]: 100
Plant response rating, Foxtail, Green [7, 16]: 100
Plant response rating, Foxtail, Green [7, 17]: 100
Plant response rating, Foxtail, Green [7, 18]: 100
Plant response rating, Foxtail, Green [7, 19]: 100
Plant response rating, Foxtail, Green [7, 20]: 100
Plant response rating, Foxtail, Green [7, 22]: 100
Plant response rating, Lambsquarters [8, 14]: 0
Plant response rating, Lambsquarters [8, 15]: 0
Plant response rating, Lambsquarters [8, 16]: 60
Plant response rating, Lambsquarters [8, 17]: 80
Plant response rating, Lambsquarters [8, 19]: 85
Plant response rating, Lambsquarters [8, 20]: 85
Plant response rating, Lambsquarters [8, 22]: 90
Plant response rating, Crabgrass, Large [9, 14]: 100
Plant response rating, Crabgrass, Large [9, 15]: 100
Plant response rating, Crabgrass, Large [9, 16]: 100
Plant response rating, Crabgrass, Large [9, 17]: 100
Plant response rating, Crabgrass, Large [9, 18]: 100
Plant response rating, Crabgrass, Large [9, 19]: 100
Plant response rating, Crabgrass, Large [9, 20]: 100
Plant response rating, Crabgrass, Large [9, 22]: 100
Plant response rating, Morningglory [10, 14]: 0
Plant response rating, Morningglory [10, 15]: 0
Plant response rating, Morningglory [10, 16]: 0
Plant response rating, Morningglory [10, 17]: 0
Plant response rating, Morningglory [10, 18]: 0
Plant response rating, Morningglory [10, 19]: 0
Plant response rating, Morningglory [10, 20]: 0
Plant response rating, Morningglory [10, 22]: 30
Plant response rating, Velvetleaf [11, 14]: 5
Plant response rating, Velvetleaf [11, 15]: 5
Plant response rating, Velvetleaf [11, 16]: 20
Plant response rating, Velvetleaf [11, 17]: 45
Plant response rating, Velvetleaf [11, 18]: 0
Plant response rating, Velvetleaf [11, 19]: 0
Plant response rating, Velvetleaf [11, 20]: 40
Plant response rating, Velvetleaf [11, 22]: 50
Plant response rating, Wheat [12, 14]: 90
Plant response rating, Wheat [12, 15]: 100
Plant response rating, Wheat [12, 16]: 100
Plant response rating, Wheat [12, 17]: 100
Plant response rating, Wheat [12, 18]: 60
Plant response rating, Wheat [12, 19]: 95
Plant response rating, Wheat [12, 20]: 100
Plant response rating, Wheat [12, 22]: 100
Plant response rating, Oat, Wild (wild oat (Avena fatua); [14]): 98
Plant response rating, Oat, Wild (wild oat (Avena fatua); [15]): 100
Plant response rating, Oat, Wild (wild oat (Avena fatua); [16]): 100
Plant response rating, Oat, Wild (wild oat (Avena fatua); [17]): 100
Plant response rating, Oat, Wild (wild oat (Avena fatua); [18]): 65
Plant response rating, Oat, Wild (wild oat (Avena fatua); [19]): 70
Plant response rating, Oat, Wild (wild oat (Avena fatua); [20]): 85
Plant response rating, Oat, Wild (wild oat (Avena fatua); [22]): 95
